Measurements: patent US10231985B2, “Compounds and compositions comprising such compounds for the prevention or treatment of dyslipidaemias” (CENTRE NATIONAL DE LA RECHERCHE SCIENTIFIQUE, priority 2013, dated 2019)

Experiments:
[1] = tested on: unfolded protein response (UPR); test: Test of UPR triggering (4xUPRE-lacZ, β-galactosidase activity) in hem1Δ yeast; type: cell-based, Saccharomyces cerevisiae; details: 200 μM, liquid medium inducing SFA accumulation
Excerpt: A plasmid construction bearing a fusion gene, corresponding to the coding sequence of the lacZ gene placed under the control of an artificial promoter containing four UPR elements (UPRE), was introduced into a hem1Δ yeast strain, as described by Pineau et al. (2009). During UPR induction, the transcription factor Hac1p/XBP1p is activated and binds to the fusion gene UPRE, leading to the transcription of the lacZ gene. As lacZ encodes β-galactosidase, the level of UPR induction is thus measured by detecting the corresponding enzyme activity. The hem1Δ yeast strain was grown in liquid medium inducing SFA accumulation with no other addition (0), or in the same medium supplemented with 200 μM oleic acid, OAG or LPA, as indicated.
The hem1Δ strain transformed by the plasmid pPW344 [2μ URA3 4×UPRE-lacZ (Patil et al., 2004)] is grown in liquid medium (YPG^A, YPG, or YPG+200 μM compound to be tested), under aerobic conditions, with shaking at 28° C. for 7 hours, from an initial cell concentration of 2×10^6 cells/ml. At the conclusion of the culture, 10^8 cells are collected in order to quantify the β-galactosidase (β-gal) activity resulting from the expression of the lacZ transgene (in the case of UPR activation). […] For each sample, β-gal activity (U) is calculated using the formula U=(1000×[OD420 nm−(1.75×OD550 nm)])/(t×V×OD600 nm), expressed in arbitrary units.

lipase = test: Resistance to hydrolytic activity of lipases (thin-layer chromatography); type: in vitro ADME; details: 10 U of lipase, 30 minutes, 37° C.
Method: OAG (15 μmol) and N,N-diethanololeamide were subjected (+) or not (−) to exposure to 10 U of lipase for 30 minutes at 37° C. Following the incubation, the lipid species were extracted from the samples before being separated by thin-layer chromatography.

[2] = tested on: QM strain (cells not synthesizing triglycerides); test: Toxicity test on QM strain (growth inhibition halos); type: cell-based, Saccharomyces cerevisiae; details: 5 μl drops on agar, after three days
Method: Drops (5 μl) of OAG, LPA or oleic acid were deposited, from stock solutions at the indicated concentrations, on the surface of an agar medium over which the QM strain had been spread beforehand. […] These halos are, however, not observed in the presence of LPA or of OAG.
In parallel, wild-type (WT) and quadruple mutant (QM) strains are grown, under aerobic conditions, with shaking and at 28° C., in liquid YPG medium before seeding 3500 cells per cm^2 of YPG+2% agar (w/v). Following this transfer to solid medium, 1 μl drops of 1, 10 and 100 mM solutions of the various compounds in DMSO or EtOH are deposited on the agar surface. Separately, DMSO and EtOH are also deposited in order to evaluate the intrinsic toxicity of these two solvents. After 3 days of culture at 28° C., the toxicity of the compounds tested is evaluated by comparing the growth inhibition halo diameters obtained for the depositions of pure solvent with those of the depositions of the various concentrations of the compounds tested. Unlike the WT strain, the QM strain is incapable of buffering excess exogenous oleic acid in the form of neutral lipids (triglycerides (TG) or esterified sterols (ES)) in lipid droplets.

[3] = tested on: eIF2α phosphorylation (UPR); test: eIF2α phosphorylation by Western blot in lipointoxicated β-cells; type: cell-based, rat; details: BRIN-BD11, 200 μM palmitic acid
Method: Pancreatic β-cells, BRIN-BD11, were grown under control conditions or in the presence of an exogenous source of saturated fatty acid (200 μM palmitic acid), as described by Dhayal & Morgan (2011), in order to generate lipointoxication conditions, with or without the addition of OAG. A) The proportion of dead cells was estimated in the absence (control) or presence of palmitic acid, for increasing concentrations of OAG. B) eIF2α phosphorylation levels were also analyzed under the various conditions by Western blot, in the presence or absence (Ø) of OAG, and were normalized to total eIF2α.
BRIN-BD11 cells are seeded at a density of 0.5×10^5 cells/ml in T25 flasks for 24 hours. As indicated above, the complete medium is then replaced by an equivalent lacking FCS but containing the lipid reagents of interest. After 6 hours of incubation, total protein is extracted using lysis buffer (20 mM Tris, 150 mM NaCl, 1 mM EDTA and 1% (v/v) Triton-X) containing protease and phosphatase inhibitors. […] The densitometric analysis of the relative abundance of phosphorylated or non-phosphorylated forms of eIF2α protein is carried out with the Fluor-S Multilmager analysis system combined with the Quantity One software (Bio-Rad UK Ltd).

| SMILES | UPR induction level (β-galactosidase activity) [1] | Hydrolysis by lipases (lipase) | Growth inhibition halos on QM strain [2] | eIF2α phosphorylation level normalized to total eIF2α (UPR intensity) [3] |
| --- | --- | --- | --- | --- |
| CCCCCCCC/C=C\CCCCCCCC(=O)OC[C@H](CO)OC(C)=O [OAG, 1-oleoyl-2-acetyl-sn-glycerol] | reduce the unfolded protein response (UPR) | unlike OAG | not observed | reduces the UPR |
| CCCCCCCC/C=C\CCCCCCCC(=O)OC[C@@H](O)COP(=O)(O)O [LPA, 1-oleoyl-sn-glycerol-3-phosphate] | reduce the unfolded protein response (UPR) | – | not observed | – |
